One assay in a line: Biolayer interferometry. The format is binding, E. coli. The note with it: 10 µg/mL biotinylated peptide on biosensor tips, 500 µg/mL LPS, 10 mM HEPES pH 7.4, 0.14 M NaCl, 30°C. As to the method:
Figure 7 Binding assay of Kn2-7 and LTA or LPS. (A) Interaction of 10 µg/ml of Kn2-7 with 500 µg/ml of LPS or 500 µg/mL of LTA. Curve A3 is LPS, curve B3 is LTA and curve C3 is buffer. (B) Interaction of 10 µg/mL of BmKn2 with 500 µg/mL of LPS or 500 µg/mL of LTA. Curve D3 is LPS, curve E3 is LTA and curve F3 is the buffer. (C) MICs of Kn2-7 and BmKn2 treated with LTA or LPS against S. aureus and E. coli.
Biolayer Interferometry (BLI) experiments were performed on OCT RED (FortéBio, Inc.). A total of 500 µg/mL of lipoteichoic acid from S. aureus (LTA, Sigma, L2515), lipopolysaccharides from E. coli (LPS, Sigma, L2880) or buffer (10 mM HEPES, pH 7.4 and 0.14 M NaCl) was dispensed into 96-well microtiter plates at a volume of 200 µl per well. The operating temperature was 30°C. Biosensor tips (FortéBio, Inc., Menlo Park, CA) were pre-wetted with the buffer for 60 seconds at baseline. Then, 10 µg/mL Biotin-Kn2-7 or Biotin-BmKn2 was loaded onto the biosensor tips for 900 seconds. Baseline 2 was subsequently established for 300 seconds. Dissociation of Kn2-7 or BmKn2 occurred for 900 seconds in the buffer. Data were generated automatically by the Octet® User Software (version 3.1) and were subsequently analyzed from the resultant text files using Excel 2000.
(In BLI a coated tip is dipped into the sample, and binding shifts an interference pattern.)

In assay [1] the test system is E. coli AB94012. In words: Transmission electron microscopy. The format is cell-based. The settings on record: E. coli AB94012, 1×MIC, treated for 2 min, semi-thin sections. As to the method:
(§1) Figure 6 Transmission electron microscopy of S. aureus and E. coli treated with Kn2-7. (A) Transmission electron microscopy was performed with Kn2-7-treated S. aureus. (A1), (A2) and (A3) were negative controls. (A4), (A5) and (A6) show S. aureus treated with Kn2-7 for 2 min. (A7), (A8) and (A9) show S. aureus treated with BmKn2 for 2 min. (B) Transmission electron microscopy was performed with Kn2-7-treated E. coli. (B1), (B2) and (B3) were the negative controls. (B4), (B5) and (B6) show E. coli treated with Kn2-7 for 2 min. (B7), (B8) and (B9) show E. coli treated with BmKn2 for 2 min.
(§2) Overnight-cultured S. aureus AB94004 and E. coli AB94012 were transferred to LB medium and cultured to the exponential phase. A 200 µl aliquot of the peptide solution was added to 800 µl of the bacterial suspensions at the final concentration of 1×MIC. The samples were cut into semi-thin sections. Microscopy was performed using a HITACHI H-8100 Transmission Electron Microscope.

In the next assay the test system is S. aureus AB94004. The assay can be described thus: Transmission electron microscopy. The format is cell-based. The note with it: 1×MIC, treated for 2 min, semi-thin sections. How it is done: as §1, §2
In a further assay the test system is HIV-1. The note with it: by direct interaction with viral particle; cited from earlier work. The text has this:
In a previous study by our group, we characterized an antimicrobial peptide, BmKn2, derived from the venom of the scorpion Mesobuthus martensii Karsch. In the present study, a derivative of BmKn2, was designed to increase the antibacterial activity and reduce the hemolytic activity. […] In addit ...

The subject of another assay is B. subtilis AB91021. In words: MIC, broth microdilution (CLSI). The format is cell-based, Bacillus subtilis. The note with it: B. subtilis AB91021, Gram-positive, 96-well. How it is done:
(§3) S. aureus AB94004, S. aureus ATCC 25923, E. coli AB94012, E. coli ATCC 25922, Pseudomonas aeruginosa AB93066, Bacillus thuringiensis AB92037, Bacillus subtilis AB91021, and Micrococcus luteus AB93113 were purchased from the China Center of Type Culture Collection (CCTCC).
(§4) The MIC was determined via a microdilution assay in 96-well microtiter plates according to the broth microdilution guideline of Clinical and Laboratory Standards Institute (CLSI).
In general terms: Broth dilution looks for growth in wells or tubes with falling amounts of substance.

For another assay, the system named is B. thuringiensis AB92037. The assay can be described thus: MIC, broth microdilution (CLSI). The format is cell-based, Bacillus thuringiensis. The settings on record: B. thuringiensis AB92037, Gram-positive, 96-well. How it is done:
as §3, §4

For the next assay, the system named is M. luteus AB93113. The assay can be described thus: MIC, broth microdilution (CLSI). The format is cell-based, Micrococcus luteus. The note with it: M. luteus AB93113, Gram-positive, 96-well. As to the method:
as §3, §4

Assay [2] concerns E. coli AB94012. The format is cell-based. The note with it: E. coli AB94012, Gram-negative; broth microdilution, 96-well. How it is done: These peptides were used to determine the inhibitory activities against the representative Gram-positive bacteria S. aureus AB94004 and the representative Gram-negative bacteria E. coli AB94012.
as §3, §4

The subject of a further assay is P. aeruginosa A092994. In words: MIC, broth microdilution (CLSI). The format is cell-based, Pseudomonas aeruginosa. The settings on record: P. aeruginosa A092994, clinical isolate. How it is done: (§5) Clinical isolated Pseudomonas aeruginosa strains A092994, A093052, A093056, A093085 and A093115 were obtained from Hubei Maternal and Child Health Hospital.
as §4

For the next assay, the system named is P. aeruginosa A093052. In words: MIC, broth microdilution (CLSI). The format is cell-based, Pseudomonas aeruginosa. The settings on record: P. aeruginosa A093052, clinical isolate. How it is done:
as §5, §4

A further assay relates to P. aeruginosa A093056. In words: MIC, broth microdilution (CLSI). The note with it: P. aeruginosa A093056, clinical isolate. The format is cell-based, Pseudomonas aeruginosa. How it is done:
as §5, §4

The next assay has as its system P. aeruginosa A093085. In words: MIC, broth microdilution (CLSI). The format is cell-based, Pseudomonas aeruginosa. The settings on record: P. aeruginosa A093085, clinical isolate. As to the method: as §5, §4
In another assay the test system is P. aeruginosa A093115. The assay can be described thus: MIC, broth microdilution (CLSI). The format is cell-based, Pseudomonas aeruginosa. The note with it: P. aeruginosa A093115, clinical isolate. As to the method:
as §5, §4

Assay [3] relates to methicillin-resistant coagulase-negative Staphylococcus (MRCNS) P1369. The assay can be described thus: microbe, parasite or virus in culture. The format is cell-based. The note with it: P1369, methicillin resistant (MRCNS) clinical isolate; repeated at least three times. How it is done:
as §4

We go through two substances from PMC3390344, “Antibacterial Activity and Mechanism of a Scorpion Venom Peptide Derivative In Vitro and In Vivo” (PLoS ONE, 2012).

Ends that are not written are not given here.

As for FIKRIARLLRKIF [Kn2-7], in “Biolayer interferometry”, the “Binding to LPS (BLI)” value is reported as “able to bind to LPS”. Further, the “Structural changes of cell wall and membrane (TEM)” value in the assay on E. coli AB94012 [1] is on record as “formed microspheres that surrounded the bacteria”; with S. aureus AB94004 it was “disrupted immediately”. Also, in the assay with HIV-1, the “Inhibition of HIV-1” value is recorded as “could inhibit HIV-1”.
Consider FIGAIARLLSKIF-NH2 [BmKn2], for which the MIC against B. subtilis AB91021 is listed as 12.5 µg/mL; in the assay with B. thuringiensis AB92037, 12.5 µg/mL; against M. luteus AB93113, 6.25 µg/mL; in the assay on E. coli AB94012 [2], more than 100 µg/mL; against P. aeruginosa A092994, more than 100 µg/mL; in the assay with P. aeruginosa A093052, more than 100 µg/mL. Further, the MIC with P. aeruginosa A093056 is more than 100 µg/mL; against P. aeruginosa A093085, more than 100 µg/mL; in the assay with P. aeruginosa A093115, more than 100 µg/mL; in assay [3], 12.5 µg/mL.
